The target of data set [1] is Rhodesain (Trypanosoma brucei rhodesiense) (UniProt Q95PM0). Put plainly: Inhibition of Trypanosoma brucei rhodesiense rhodesain expressed in Pichia pastoris using Cbz-Phe-Arg-AMC as substrate assessed as inactivation constant incubated for 30 mins by fluorescence assay.
A further data set addresses Rhodesain (Trypanosoma brucei rhodesiense, UniProt Q95PM0). Kind of data set: Inhibition of Trypanosoma brucei rhodesiense rhodesain expressed in Pichia pastoris using Cbz-Phe-Arg-AMC as substrate assessed as inhibition constant incubated for 30 mins by fluorescence assay.
The target of data set [2] is Rhodesain (Trypanosoma brucei rhodesiense) (UniProt Q95PM0). Kind of data set: Inhibition of Trypanosoma brucei rhodesiense rhodesain expressed in Pichia pastoris using Cbz-Phe-Arg-AMC as substrate assessed as second order rate constant obtained from ratio of Kinact by Ki incubated for 30 mins by fluorescence assay.
For a further data set, the system named is Trypanosoma brucei. Kind of data set: Antitrypanosomal activity against Trypanosoma brucei incubated for 24 hrs by luminescence based ClarioStar plate reader analysis. It is filed as functional, organism-based.
Data set [3] can be described thus: Cytotoxicity against human SH-SY5Y cells assessed as reduction in cell viability incubated for 24 hrs by MTT assay. The data set is classed as toxicity, cell-based.
The target in data set [4] is Rhodesain (Trypanosoma brucei rhodesiense) (UniProt Q95PM0). Put plainly: Inhibition of Trypanosoma brucei rhodesiense rhodesain expressed in Pichia pastoris using Cbz-Phe-Arg-AMC as substrate at 20 uM incubated for 30 mins by fluorescence assay relative to control.

The structures appear in SMILES notation.

Sequence of Rhodesain (Trypanosoma brucei rhodesiense) (Q95PM0 1-450): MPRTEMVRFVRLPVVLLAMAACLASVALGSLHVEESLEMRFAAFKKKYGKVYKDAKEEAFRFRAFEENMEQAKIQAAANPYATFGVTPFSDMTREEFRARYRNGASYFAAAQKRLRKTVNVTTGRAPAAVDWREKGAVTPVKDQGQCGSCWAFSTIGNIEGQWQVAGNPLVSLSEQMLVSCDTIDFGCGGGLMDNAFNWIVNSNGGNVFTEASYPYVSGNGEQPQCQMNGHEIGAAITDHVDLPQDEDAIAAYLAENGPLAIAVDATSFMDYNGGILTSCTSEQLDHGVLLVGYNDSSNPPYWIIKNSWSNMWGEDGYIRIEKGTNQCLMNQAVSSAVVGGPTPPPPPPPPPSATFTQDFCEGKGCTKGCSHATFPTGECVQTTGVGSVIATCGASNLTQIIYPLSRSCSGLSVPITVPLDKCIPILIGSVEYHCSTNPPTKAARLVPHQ
Sequence of Rhodesain (Q95PM0 whole entry): as the sequence (Q95PM0 1-450) above

Consider `CC(=O)/C=C/[C@H](CCc1ccccc1)NC(=O)[C@@H]1Cc2ccccc2CN1C(=O)c1ccccc1F`, for which the Kinact in data set [1] was found to be 0.019 min⁻¹. Moreover, the Ki at Rhodesain was found to be 4880 nM. Besides, in data set [2], the Ratio was 4.1 10^3/M/min. Moreover, the concentration giving a half-maximal response (EC50) with Trypanosoma brucei was 910 nM. Further, the CC50 at 24 h in data set [3] is more than 100000 nM.

`CC(=O)/C=C/CNC(=O)[C@@H]1Cc2ccccc2CN1C(=O)c1ccc(F)cc1F` displayed an inhibition in data set [4] of 11%.

As to `CC(=O)/C=C/[C@H](CCc1ccccc1)NC(=O)[C@@H]1Cc2ccccc2CN1C(=O)Nc1ccc(Cl)cc1C`, in data set [4], the inhibition was 40%.

`CC(=O)/C=C/[C@H](CCc1ccccc1)NC(=O)[C@@H]1Cc2ccccc2CN1C(=O)OCc1ccccc1`: the Kinact in data set [1] amounted to 0.005 min⁻¹. Further, the Ki at Rhodesain is 720 nM. For the same compound, in data set [2], the Ratio was 6.7 10^3/M/min. The midpoint of the response in the data set with Trypanosoma brucei, the EC50, lay at 670 nM. Besides, the cytotoxic concentration (CC50) at 24 h in data set [3] is more than 100000 nM.

In the case of `CC(=O)/C=C/[C@H](CCc1ccccc1)NC(=O)[C@@H]1Cc2ccccc2CN1C(=O)[C@H](CC(C)C)NC(=O)OCc1ccccc1`, the Kinact in data set [1] worked out at 0.001 min⁻¹. Moreover, the Ki on Rhodesain is 16 nM. Further, the Ratio in data set [2] was 68.5 10^3/M/min. Besides, the EC50 in the data set with Trypanosoma brucei came to 580 nM. Moreover, the CC50 at 24 h in data set [3] was more than 100000 nM.

Take `CC(=O)/C=C/[C@H](CCc1ccccc1)NC(=O)[C@@H]1Cc2ccccc2CN1C(=O)Nc1ccc(C)cc1`: the inhibition in data set [4] amounted to 14%.

For `CC(=O)/C=C/[C@H](CCc1ccccc1)NC(=O)[C@@H]1Cc2ccccc2CN1C(=O)c1cccc(F)c1`, in data set [1], the Kinact is 0.021 min⁻¹. Also, the Ki at Rhodesain was 700 nM. Also, in data set [2], the Ratio was 30.1 10^3/M/min. In addition, the EC50 in the data set with Trypanosoma brucei stood at 1350 nM. In addition, the CC50 at 24 h in data set [3] was more than 100000 nM.

Compound `CC(=O)/C=C/[C@H](CCc1ccccc1)NC(=O)[C@@H]1Cc2ccccc2CN1C(=O)c1c(F)cccc1F` yielded an inhibition in data set [4] of 32%.

As for `CC(=O)/C=C/[C@H](CCc1ccccc1)NC(=O)[C@H](Cc1ccccc1)NC(=O)[C@H](CC(C)C)NC(=O)OCc1ccccc1`, the response in the data set with Trypanosoma brucei was half-maximal at 3100 nM (EC50).

Consider `CC(=O)/C=C/[C@H](CCc1ccccc1)NC(=O)[C@@H]1Cc2ccccc2CN1C(=O)c1ccc(F)cc1`, for which the Kinact in data set [1] was 0.015 min⁻¹. For the same compound, the Ki on Rhodesain turned out to be 1920 nM. Moreover, in data set [2], the Ratio is 8 10^3/M/min. Moreover, the response in the data set with Trypanosoma brucei was half-maximal at 850 nM (EC50). In data set [3], the CC50 at 24 h was more than 100000 nM.

Turning to `CC(=O)/C=C/[C@H](CCc1ccccc1)NC(=O)[C@@H]1Cc2ccccc2CN1C(=O)c1ccc(F)cc1F`, the Kinact in data set [1] was determined as 0.012 min⁻¹. Moreover, at Rhodesain, the Ki stood at 90 nM. The Ratio in data set [2] is 146 10^3/M/min. Besides, the EC50 in the data set on Trypanosoma brucei worked out at 1210 nM. Besides, the CC50 at 24 h in data set [3] was more than 100000 nM.

For `CC(=O)/C=C/[C@H](CCc1ccccc1)NC(=O)[C@@H]1Cc2ccccc2CN1C(=O)[C@H](Cc1ccccc1)NC(=O)OCc1ccccc1`, the Kinact in data set [1] stood at 0.001 min⁻¹. At Rhodesain, the Ki turned out to be 11 nM. The Ratio in data set [2] is 75.6 10^3/M/min. This compound yielded an EC50 in the data set on Trypanosoma brucei of 420 nM. Besides, the CC50 at 24 h in data set [3] was more than 100000 nM.

In the case of `CC(=O)/C=C/[C@H](C)NC(=O)[C@@H]1Cc2ccccc2CN1C(=O)c1ccc(F)cc1F`, the inhibition in data set [4] is 20.2%.

For the compound `CC(=O)/C=C/[C@H](CCc1ccccc1)NC(=O)[C@@H]1Cc2ccccc2CN1C(=O)OC(C)(C)C`, in data set [4], the inhibition amounted to 18%.

Turning to `CC(=O)/C=C/[C@H](CCc1ccccc1)NC(=O)[C@H](Cc1ccccc1)NC(=O)[C@H](Cc1ccccc1)NC(=O)OCc1ccccc1`, in the data set with Trypanosoma brucei, the concentration giving a half-maximal response (EC50) was 2600 nM. This counts as single-digit micromolar.

`CC(=O)/C=C/[C@H](CCc1ccccc1)NC(=O)[C@@H]1Cc2ccccc2CN1C(=O)[C@H](CC1CCCCC1)NC(=O)OCc1ccccc1`: the Kinact in data set [1] stood at 0.001 min⁻¹. The Ki at Rhodesain came to 22 nM. Also, the Ratio in data set [2] was 47.9 10^3/M/min. Besides, in the data set with Trypanosoma brucei, the EC50 amounted to 570 nM. In data set [3], the CC50 at 24 h was more than 100000 nM.

Regarding `CC(=O)/C=C/[C@H](CCc1ccccc1)NC(=O)[C@@H]1Cc2ccccc2CN1C(=O)[C@H](C)NC(=O)OCc1ccccc1`, the inhibition in data set [4] was 26%.

`CC(=O)/C=C/[C@H](CCc1ccccc1)NC(=O)[C@H](Cc1ccccc1)NC(=O)[C@H](CC1CCCCC1)NC(=O)OCc1ccccc1`: a half-maximal effect in the data set on Trypanosoma brucei (EC50) was put at 1300 nM. That is a single-digit micromolar value.

For the compound `CC(=O)/C=C/[C@H](Cc1ccccc1)NC(=O)[C@@H]1Cc2ccccc2CN1C(=O)c1ccc(F)cc1F`, the inhibition in data set [4] stood at 18.4%.

For orientation: Ki means a measure of affinity in units of concentration, obtained from inhibition or displacement. For orientation: EC50 means the concentration that produces a half-maximal response. High values mean a need for much substance, low ones an effect from little substance. A word on the CC50: it is the concentration at which the toxic effect on the cells reaches its halfway point. A word on the inhibition: it is the relative decrease from the control value, in per cent. A low value points to little suppression.

Source of the values: ChEMBL document CHEMBL6109075, “Identification of constrained peptidomimetics carrying a Michael acceptor warhead as antitrypanosomal agents” (Eur J Med Chem, 2025).
